Results: paper PMC12155096 (International Journal of Molecular Sciences, 2025)
Structures can show the parent of a compound that is named as a salt. Where two headings read alike, the source gives them in different places.

How the values were obtained:
human CYP1A2 [1] = target: T1, human CYP1A2 (Homo sapiens, UniProt P05177)
T1 sequence (P05177 1-516): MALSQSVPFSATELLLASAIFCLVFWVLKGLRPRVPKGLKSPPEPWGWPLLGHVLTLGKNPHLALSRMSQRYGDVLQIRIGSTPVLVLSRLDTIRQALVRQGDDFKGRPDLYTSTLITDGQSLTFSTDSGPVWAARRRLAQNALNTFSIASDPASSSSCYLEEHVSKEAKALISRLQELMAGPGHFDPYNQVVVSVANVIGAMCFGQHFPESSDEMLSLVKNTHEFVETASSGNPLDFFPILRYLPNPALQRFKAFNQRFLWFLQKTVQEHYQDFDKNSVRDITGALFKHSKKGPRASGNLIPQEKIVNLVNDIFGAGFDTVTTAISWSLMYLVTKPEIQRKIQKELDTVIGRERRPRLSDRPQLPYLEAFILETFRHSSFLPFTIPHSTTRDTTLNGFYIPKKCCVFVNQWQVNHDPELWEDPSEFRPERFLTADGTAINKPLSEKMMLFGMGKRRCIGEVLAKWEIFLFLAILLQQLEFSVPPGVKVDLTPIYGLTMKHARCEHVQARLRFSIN

human CYP2D6 = human CYP2D6 (Homo sapiens, UniProt P10635)
Sequence of human CYP2D6 (P10635 whole entry): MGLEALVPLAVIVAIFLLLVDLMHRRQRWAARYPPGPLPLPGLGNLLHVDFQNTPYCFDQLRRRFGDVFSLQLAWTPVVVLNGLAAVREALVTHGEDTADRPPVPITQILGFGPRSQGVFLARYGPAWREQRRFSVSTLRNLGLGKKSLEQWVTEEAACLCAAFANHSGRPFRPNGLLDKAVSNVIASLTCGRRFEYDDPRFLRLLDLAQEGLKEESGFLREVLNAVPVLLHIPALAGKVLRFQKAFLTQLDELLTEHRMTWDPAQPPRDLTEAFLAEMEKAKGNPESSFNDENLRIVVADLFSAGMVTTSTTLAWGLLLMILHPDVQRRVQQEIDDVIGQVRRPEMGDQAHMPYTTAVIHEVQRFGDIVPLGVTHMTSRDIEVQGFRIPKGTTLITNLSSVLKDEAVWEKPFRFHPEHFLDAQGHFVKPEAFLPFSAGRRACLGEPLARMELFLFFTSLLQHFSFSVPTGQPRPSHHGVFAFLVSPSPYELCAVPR

human CYP2C19 [2] = target: T2, human CYP2C19 (Homo sapiens, UniProt P33261)
T2 sequence (P33261 whole entry): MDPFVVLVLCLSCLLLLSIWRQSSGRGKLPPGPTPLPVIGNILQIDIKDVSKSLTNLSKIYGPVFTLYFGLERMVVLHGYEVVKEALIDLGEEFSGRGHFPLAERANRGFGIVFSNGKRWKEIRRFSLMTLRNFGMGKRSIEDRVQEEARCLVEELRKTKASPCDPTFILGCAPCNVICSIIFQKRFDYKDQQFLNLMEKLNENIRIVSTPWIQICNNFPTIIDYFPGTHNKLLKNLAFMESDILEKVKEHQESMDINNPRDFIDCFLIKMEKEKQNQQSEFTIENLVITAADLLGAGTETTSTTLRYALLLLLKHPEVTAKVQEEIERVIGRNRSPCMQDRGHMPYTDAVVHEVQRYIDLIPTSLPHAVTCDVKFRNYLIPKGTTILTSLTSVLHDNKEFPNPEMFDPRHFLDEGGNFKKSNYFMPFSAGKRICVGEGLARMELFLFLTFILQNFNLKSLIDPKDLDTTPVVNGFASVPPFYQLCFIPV

[3] = target: Photinus pyralis (firefly) luciferase (Photinus pyralis, UniProt P08659); assay: biochemical; assay type: biochemical
Sequence of Photinus pyralis (firefly) luciferase (P08659 whole entry): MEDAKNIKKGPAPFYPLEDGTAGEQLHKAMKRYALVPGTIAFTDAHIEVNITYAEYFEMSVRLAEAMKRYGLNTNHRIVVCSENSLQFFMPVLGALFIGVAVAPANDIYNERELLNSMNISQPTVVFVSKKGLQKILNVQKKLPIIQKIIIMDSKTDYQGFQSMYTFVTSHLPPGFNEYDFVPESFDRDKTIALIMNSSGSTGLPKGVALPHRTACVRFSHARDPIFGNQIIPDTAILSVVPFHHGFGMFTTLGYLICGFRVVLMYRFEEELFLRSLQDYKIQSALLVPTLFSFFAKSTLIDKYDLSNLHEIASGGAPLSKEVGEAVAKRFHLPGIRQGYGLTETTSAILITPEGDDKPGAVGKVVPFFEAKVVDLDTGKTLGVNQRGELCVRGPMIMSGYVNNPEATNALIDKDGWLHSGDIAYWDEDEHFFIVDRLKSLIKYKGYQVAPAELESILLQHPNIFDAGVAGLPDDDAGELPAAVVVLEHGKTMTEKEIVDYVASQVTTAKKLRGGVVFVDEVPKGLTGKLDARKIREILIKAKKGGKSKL

human CYP2C9 [4] = target: T3, human CYP2C9 (Homo sapiens, UniProt P11712)
T3 sequence (P11712 whole entry): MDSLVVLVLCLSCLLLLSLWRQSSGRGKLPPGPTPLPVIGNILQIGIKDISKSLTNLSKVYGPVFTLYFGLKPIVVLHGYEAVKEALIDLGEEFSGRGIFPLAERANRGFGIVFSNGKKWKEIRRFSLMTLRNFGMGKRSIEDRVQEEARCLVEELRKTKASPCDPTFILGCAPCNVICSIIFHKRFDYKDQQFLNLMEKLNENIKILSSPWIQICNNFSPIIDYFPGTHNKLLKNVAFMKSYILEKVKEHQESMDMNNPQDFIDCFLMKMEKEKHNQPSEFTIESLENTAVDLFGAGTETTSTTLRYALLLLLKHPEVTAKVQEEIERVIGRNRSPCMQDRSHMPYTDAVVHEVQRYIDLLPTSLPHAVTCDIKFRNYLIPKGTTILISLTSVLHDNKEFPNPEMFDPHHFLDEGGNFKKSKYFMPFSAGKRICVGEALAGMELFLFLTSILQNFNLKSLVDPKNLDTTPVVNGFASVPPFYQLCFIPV

CYP3A4 = CYP3A4 (Homo sapiens, UniProt P08684)
Sequence of CYP3A4 (P08684 whole entry): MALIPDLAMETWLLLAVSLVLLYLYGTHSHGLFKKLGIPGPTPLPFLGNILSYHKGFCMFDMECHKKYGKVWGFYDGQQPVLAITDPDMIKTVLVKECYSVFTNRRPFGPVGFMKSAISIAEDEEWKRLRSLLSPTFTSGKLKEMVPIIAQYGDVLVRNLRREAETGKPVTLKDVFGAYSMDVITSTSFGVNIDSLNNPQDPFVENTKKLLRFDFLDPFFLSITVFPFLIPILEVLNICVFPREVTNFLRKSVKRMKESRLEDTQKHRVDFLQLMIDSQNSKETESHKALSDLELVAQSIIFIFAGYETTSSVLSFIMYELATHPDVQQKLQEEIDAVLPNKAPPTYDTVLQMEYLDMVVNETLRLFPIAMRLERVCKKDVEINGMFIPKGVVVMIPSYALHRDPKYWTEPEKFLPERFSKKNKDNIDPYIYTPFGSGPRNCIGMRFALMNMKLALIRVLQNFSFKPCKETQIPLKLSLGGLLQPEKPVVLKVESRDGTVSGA

human CYP2C19 [5] = target: T2, human CYP2C19; assay: biochemical
human CYP1A2 [6] = target: T1, human CYP1A2; assay: biochemical
human CYP2C9 [7] = target: T3, human CYP2C9; assay: biochemical
[8] = CYP2C19 IC50 (half-maximal inhibitory concentration)
[9] = CYP2C9 IC50 (half-maximal inhibitory concentration)

SMILES: CCOP(=O)([O-])OCC.CCn1cc[n+](C)c1
- CYP1A2 Efficacy (in parenthesis) (human CYP1A2 [1]): 78.99 ± 0 (-105 ± 5) %
- IC50 (human CYP1A2 [1]): 79 µM
- CYP2D6 Efficacy (in parenthesis) (human CYP2D6): 0.61 ± 0.29 (-97 ± 6) %
- IC50 (human CYP2D6): 0.61 µM
- CYP2C19 Efficacy (in parenthesis) (human CYP2C19 [2]): 68.44 ± 11.66 (-161 ± 32) %
- IC50 (human CYP2C19 [2]): 68.4 µM
- Luciferase Efficacy (in parenthesis) [3]: 86.36 ± 7.02 (-39 ± 30) %
- IC50 ([3]; read-out: Luciferase IC50 (half-maximal inhibitory concentration)): 86.4 µM
- CYP2C9 Efficacy (in parenthesis) (human CYP2C9 [4]): 58.2 ± 3.94 (-117 ± 2) %
- IC50 (human CYP2C9 [4]): 58.2 µM
- CYP3A4 Efficacy (in parenthesis) (CYP3A4): 45.03 ± 9.43 (-76 ± 7) %
- IC50 (CYP3A4): 45 µM

SMILES: CNC(C)Cc1ccc2c(c1)OCO2.Cl (stereo not shown)
- CYP1A2 IC50 (half-maximal inhibitory concentration) (human CYP1A2 [1]): Inactive
- IC50 (human CYP2D6): 0.4 µM
- CYP2C19 IC50 (half-maximal inhibitory concentration) (human CYP2C19 [2]): Inactive
- Luciferase IC50 (half-maximal inhibitory concentration) [3]: Inactive
- CYP2C9 IC50 (half-maximal inhibitory concentration) (human CYP2C9 [4]): Inactive
- CYP3A4 IC50 (half-maximal inhibitory concentration) (CYP3A4): Inactive

SMILES: Cl.ClCCCN1CCN(c2cccc(Cl)c2)CC1
- AC50 (human CYP1A2 [1]): 16.1 µM
- CYP1A2 Efficacy (human CYP1A2 [1]): 16.12 ± 1.09 (-77 ± 4) %
- AC50 (human CYP2D6): 0.79 µM
- CYP2D6 Efficacy (human CYP2D6): 0.79 ± 0.18 (-96 ± 4) %
- AC50 (human CYP2C19 [2]): 8.86 µM
- CYP2C19 Efficacy (human CYP2C19 [2]): 8.86 ± 2.03 (-125 ± 5) %
- Luciferase IC50 [3]: Inactive
- AC50 (human CYP2C9 [4]): 16.8 µM
- CYP2C9 Efficacy (human CYP2C9 [4]): 16.75 ± 1.09 (-48 ± 5) %
- AC50 (CYP3A4): 15.5 µM
- CYP3A4 IC50 (CYP3A4): 15.49 ± 0 (111 ± 12) µM

SMILES: CC(C)(C)c1cc(CCC(=O)NN)cc(C(C)(C)C)c1O
- CYP1A2 Efficacy (in parenthesis) (human CYP1A2 [1]): 6.97 ± 1.74 (-102 ± 5) %
- IC50 (human CYP1A2 [1]): 6.97 µM
- CYP2D6 Efficacy (in parenthesis) (human CYP2D6): 34.28 ± 2.23 (-95 ± 1) %
- IC50 (human CYP2D6): 34.3 µM
- CYP2C19 Efficacy (in parenthesis) (human CYP2C19 [2]): 5.4 ± 1.6 (-136 ± 2) %
- IC50 (human CYP2C19 [2]): 5.4 µM
- Luciferase IC50 (half-maximal inhibitory concentration) [3]: Inactive
- CYP2C9 Efficacy (in parenthesis) (human CYP2C9 [4]): 5.92 ± 1.06 (-98 ± 3) %
- IC50 (human CYP2C9 [4]): 5.92 µM
- CYP3A4 Efficacy (in parenthesis) (CYP3A4): 0.14 ± 0.02 (-94 ± 4) %
- IC50 (CYP3A4): 0.14 µM

SMILES: C=CCc1cc(S(=O)(=O)c2ccc(O)c(CC=C)c2)ccc1O
- CYP1A2 Efficacy (in parenthesis) (human CYP1A2 [1]): 73.87 ± 5 (-42 ± 2) %
- IC50 (human CYP1A2 [1]): 73.9 µM
- CYP2D6 Efficacy (in parenthesis) (human CYP2D6): 6.26 ± 1.74 (-110 ± 9) %
- IC50 (human CYP2D6): 6.26 µM
- CYP2C19 Efficacy (in parenthesis) (human CYP2C19 [2]): 3.47 ± 1.89 (-136 ± 7) %
- IC50 (human CYP2C19 [2]): 3.47 µM
- Luciferase IC50 (half-maximal inhibitory concentration) [3]: Inactive
- CYP2C9 Efficacy (in parenthesis) (human CYP2C9 [4]): 0.4 ± 0.13 (-67 ± 11) %
- IC50 (human CYP2C9 [4]): 0.4 µM
- CYP3A4 Efficacy (in parenthesis) (CYP3A4): 20.01 ± 7.14 (-71 ± 11) %
- IC50 (CYP3A4): 20 µM

SMILES: CCCC[P+](CC)(CCCC)CCCC.CCOP(=O)([O-])OCC
- CYP1A2 IC50 (human CYP1A2 [1]): Inactive
- IC50 (human CYP2D6): 0.06 µM
- CYP2C19 Efficacy (human CYP2C19 [2]): 70.71 ± 33.56 (-88 ± 37) %
- Luciferase IC50 [3]: Inactive
- CYP2C9 IC50 (human CYP2C9 [4]): Inactive
- CYP3A4 IC50 (CYP3A4): Inactive

SMILES: Cl.Cl.NCCNc1cccc2ccccc12
- CYP1A2 Efficacy (human CYP1A2 [1]): 0.57 ± 0.07 (-100 ± 5) %
- CYP2D6 Efficacy (human CYP2D6): 5.04 ± 0.58 (-104 ± 5) %
- CYP2C19 Efficacy (human CYP2C19 [2]): 24.7 ± 6.17 (-146 ± 5) %
- Luciferase IC50 [3]: Inactive
- CYP2C9 Efficacy (human CYP2C9 [4]): 17.25 ± 2.37 (-110 ± 3) %
- IC50 (CYP3A4): 31.8 µM

SMILES: Cc1cc(CCC(=O)OCCOCCOCCOC(=O)CCc2cc(C)c(O)c(C(C)(C)C)c2)cc(C(C)(C)C)c1O
- CYP1A2 IC50 (half-maximal inhibitory concentration) (human CYP1A2 [1]): Inactive
- CYP2D6 Efficacy (in parenthesis) (human CYP2D6): 9.78 ± 0 (-91 ± 3) %
- IC50 (human CYP2D6): 9.78 µM
- CYP2C19 Efficacy (in parenthesis) (human CYP2C19 [2]): 4.01 ± 1.12 (-130 ± 10) %
- IC50 (human CYP2C19 [2]): 4.01 µM
- Luciferase IC50 (half-maximal inhibitory concentration) [3]: Inactive
- CYP2C9 Efficacy (in parenthesis) (human CYP2C9 [4]): 0.55 ± 0.06 (-101 ± 5) %
- IC50 (human CYP2C9 [4]): 0.55 µM
- CYP3A4 Efficacy (in parenthesis) (CYP3A4): 2.56 ± 0.17 (-86 ± 4) %
- IC50 (CYP3A4): 2.56 µM

SMILES: CC[C@]12CCCN3CCc4c(n(c5ccccc45)C(=O)C1)[C@@H]32 [(-)-Eburnamonine]
- IC50 (human CYP1A2 [1]): 24.1 µM
- IC50 (human CYP2C19 [2]): 6.17 µM
- Luciferase IC50 (half-maximal inhibitory concentration) [3]: Inactive
- IC50 (human CYP2C9 [4]): 20.1 µM
- IC50 (CYP3A4): 4.38 µM

SMILES: CN(C)CCN(Cc1ccc(Cl)cc1)c1ccccn1.Cl [Chloropyramine hydrochloride]
- CYP1A2 Efficacy (human CYP1A2 [1]): 20.13 ± 6.48 (-40 ± 3) %
- CYP2D6 Efficacy (human CYP2D6): 0.23 ± 0.05 (-101 ± 4) %
- CYP2C19 Efficacy (human CYP2C19 [2]): 7.51 ± 1.03 (-122 ± 9) %
- Luciferase IC50 [3]: Inactive
- CYP3A4 IC50 (CYP3A4): Inactive

SMILES: C[C@@H](NCCCc1cccc(C(F)(F)F)c1)c1cccc2ccccc12 [Cinacalcet hydrochloride]
- IC50 (human CYP2C19 [5]): 10.8 ± 2.69 µM
- IC50 (human CYP2D6; human): 0.05 µM
- IC50 (human CYP1A2 [6]): 26.9 ± 8.25 µM
- IC50 (human CYP2C9 [7]): 38.9 µM
- Luciferase IC50 [3]: Inactive

SMILES: O=c1c(-c2ccc(O)cc2)coc2cc(O)ccc12 [Daidzein]
- IC50 (human CYP2C19 [5]; [8]): 36.4 µM
- CYP2D6 IC50 (half-maximal inhibitory concentration) (human CYP2D6): Inactive
- IC50 (human CYP1A2 [6]; CYP1A2 IC50 (half-maximal inhibitory concentration)): 28.3 µM
- IC50 (human CYP2C9 [7]; [9]): 0.36 µM
- IC50 [3]: 19.6 µM

SMILES: CCOP(=S)(OCC)Oc1cc(C)nc(C(C)C)n1 [Diazinon]
- IC50 (human CYP2C19 [5]; CYP2C19 IC50): 0.44 µM
- CYP2D6 IC50 (human CYP2D6): Inactive
- IC50 (human CYP1A2 [6]; CYP1A2 IC50): 7.13 µM
- IC50 (human CYP2C9 [7]; CYP2C9 IC50): 1.99 µM
- Luciferase IC50 [3]: Inactive

SMILES: ClC1=C(Cl)C2(Cl)C3C4CC(C5OC45)C3C1(Cl)C2(Cl)Cl (stereo not shown) [Endrin]
- IC50 (human CYP2C19 [5]; CYP2C19 IC50): 26.6 µM
- CYP2D6 IC50 (human CYP2D6): Inactive
- IC50 (human CYP1A2 [6]; CYP1A2 IC50): 54 µM
- IC50 (human CYP2C9 [7]; CYP2C9 IC50): 12.4 µM
- Luciferase IC50 [3]: Inactive

SMILES: CCN(CC)C(=O)/C(C#N)=C/c1cc(O)c(O)c([N+](=O)[O-])c1 [Entacapone]
- CYP1A2 IC50 (half-maximal inhibitory concentration) (human CYP1A2 [1]): Inactive
- CYP2D6 IC50 (half-maximal inhibitory concentration) (human CYP2D6): Inactive
- CYP2C19 IC50 (half-maximal inhibitory concentration) (human CYP2C19 [2]): Inactive
- IC50 (human CYP2C9 [7]; [9]): 0.2 µM
- Luciferase IC50 (half-maximal inhibitory concentration) [3]: Inactive
- CYP3A4 IC50 (half-maximal inhibitory concentration) (CYP3A4): Inactive

SMILES: C#Cc1ccc(-c2ccccc2F)cc1 [Fluretofene]
- IC50 (human CYP2C19 [5]): 25.7 µM
- IC50 (human CYP1A2 [6]): 0.88 µM
- IC50 (human CYP2C9 [7]): 16.1 µM
- IC50 [3]: 25.8 µM

SMILES: C=CCOC(Cn1ccnc1)c1ccc(Cl)cc1Cl.O=S(=O)(O)O (stereo not shown) [Imazalil sulfate]
- CYP2D6 Efficacy (in parenthesis) (human CYP2D6): 5.1 ± 0.35 (-106 ± 4) %
- IC50 (human CYP2D6): 5.1 µM
- CYP2C19 Efficacy (in parenthesis) (human CYP2C19 [2]): 0.22 ± 0.08 (-143 ± 13) %
- IC50 (human CYP2C19 [2]): 0.22 µM
- Luciferase IC50 (half-maximal inhibitory concentration) [3]: Inactive
- CYP2C9 Efficacy (in parenthesis) (human CYP2C9 [4]): 0.63 ± 0.18 (-107 ± 5) %
- IC50 (human CYP2C9 [4]): 0.63 µM
- CYP3A4 Efficacy (in parenthesis) (CYP3A4): 0.12 ± 0.02 (-91 ± 3) %
- IC50 (CYP3A4): 0.12 µM

SMILES: NS(=O)(=O)C(F)(F)C(F)(F)C(F)(F)C(F)(F)C(F)(F)C(F)(F)C(F)(F)C(F)(F)F [PFOSA]
- CYP1A2 IC50 (half-maximal inhibitory concentration) (human CYP1A2 [1]): Inactive
- IC50 (human CYP2C19 [5]; [8]): 64.3 µM
- CYP2D6 IC50 (half-maximal inhibitory concentration) (human CYP2D6): Inactive
- IC50 (human CYP2C9 [7]; [9]): 0.71 µM
- Luciferase IC50 (half-maximal inhibitory concentration) [3]: Inactive
- CYP3A4 IC50 (half-maximal inhibitory concentration) (CYP3A4): Inactive

SMILES: Cl[C@H]1[C@H](Cl)[C@@H](Cl)[C@H](Cl)[C@@H](Cl)[C@@H]1Cl [beta-Hexachlorocyclohexane]
- IC50 (human CYP2C19 [5]; CYP2C19 IC50): 1.96 µM
- CYP2D6 IC50 (human CYP2D6): Inactive
- IC50 (human CYP1A2 [6]; CYP1A2 IC50): 1.14 µM
- IC50 (human CYP2C9 [7]; CYP2C9 IC50): 4.17 µM
- Luciferase IC50 [3]: Inactive
